The test system of this test is Collagen Antibody-Induced Arthritis (CAIA) model. Kind of test: CAIA model in mice, first study. In kind it is in vivo. As to conditions: ten-day period; Humira 10 mg/kg bolus day 1; Lex 5.2 0.32 mg/kg/day i.p.; compared with stimulated untreated animals; Figure 11. From the text:
In light of the ability of cyclic peptides to alter the behaviour of macrophages, down-regulating TNF secretion both in vitro and in vivo, the investigation was extended to examine whether such peptides could have an impact on inflammatory diseases such as rheumatoid arthritis, where activation of macrophages, and secretion of TNF, is an important component. The CAIA model was chosen, as its use of lipopolysaccharide as one of the stimulants mirrors the models already employed. The other inducer of inflammation is a cocktail of anti-collagen antibodies, which are agents thought to contribute to disease in the human condition. A scheme of the experimental design is shown in Figure 8, and detailed methodology is provided in the Materials and Methods section of this article. […]
A range of different parameters was measured, as follows: (i) clinical score—a subjective assessment of the number of joints in each paw affected; (ii) paw thickness—measurement of oedema in the paws, reflecting the severity of inflammation; (iii) TNF levels—rise in the bloodstream immediately after LPS administration; (iv) weight change—loss of weight resulting from inflammation. […]

As for adalimumab [Humira], the Change in weight entry is recorded as “much reduced”.

The values above are taken from paper PMC6151468, “Efficacy of Bioactive Cyclic Peptides in Rheumatoid Arthritis: Translation from In Vitro to In Vivo Models” (Molecules : A Journal of Synthetic Chemistry and Natural …, 2017).
